According to PubChem BioAssay (NCI):
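Assay format: 96-well plates, 48-hour exposure. TGI: concentration producing complete growth inhibition.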

Key:
Assay in all cases: NCI tumour cell line growth inhibition, 48 h
A549 NSCLC = tested on: A549 NSCLC
SK-MEL-28 melanoma = tested on: SK-MEL-28 melanoma
SNB-19 CNS = tested on: SNB-19 CNS
HOP-62 NSCLC = tested on: HOP-62 NSCLC
SW-620 colon = tested on: SW-620 colon
PC-3 prostate = tested on: PC-3 prostate
EKVX NSCLC = tested on: EKVX NSCLC
NCI-H460 lung = tested on: NCI-H460 lung
HCT-15 colon = tested on: HCT-15 colon
KM12 colon = tested on: KM12 colon
LOX IMVI melanoma = tested on: LOX IMVI melanoma
HS 578T breast = tested on: HS 578T breast
NCI-H226 lung = tested on: NCI-H226 lung
COLO 205 colon = tested on: COLO 205 colon
MDA-N = tested on: MDA-N
NCI-H23 lung = tested on: NCI-H23 lung
MOLT-4 leukemia = tested on: MOLT-4 leukemia
NCI/ADR-RES ovarian = tested on: NCI/ADR-RES ovarian
TK-10 renal = tested on: TK-10 renal
SF-539 CNS = tested on: SF-539 CNS

Compound | TGI (A549 NSCLC) | TGI (SK-MEL-28 melanoma) | TGI (SNB-19 CNS) | TGI (HOP-62 NSCLC) | TGI (SW-620 colon) | TGI (PC-3 prostate) | TGI (EKVX NSCLC) | TGI (NCI-H460 lung) | TGI (HCT-15 colon) | TGI (KM12 colon) | TGI (LOX IMVI melanoma) | TGI (HS 578T breast) | TGI (NCI-H226 lung) | TGI (COLO 205 colon) | TGI (MDA-N) | TGI (NCI-H23 lung) | TGI (MOLT-4 leukemia) | TGI (NCI/ADR-RES ovarian) | TGI (TK-10 renal) | TGI (SF-539 CNS)
COc1ccc(-c2c(C(=O)Nc3ccccc3)c(-c3ccccc3)n(C3OC(CO)C(O)C(O)C3O)c(=S)c2C#N)cc1 (configuration not stated) | > 100 µM | > 100 µM | > 100 µM | > 100 µM | > 100 µM | > 100 µM | > 100 µM | > 100 µM | > 100 µM | > 100 µM | > 100 µM | > 100 µM | > 100 µM | > 100 µM | > 100 µM | > 100 µM | > 100 µM | > 100 µM | – | –
CC(C)(C)OC(=O)N1CCC[C@H]1CSC[C@@H]1CCCN1C(=O)OC(C)(C)C | 87.3 µM | 60 µM | > 100 µM | > 100 µM | 96.8 µM | 82.1 µM | > 100 µM | > 100 µM | 92.4 µM | 48.2 µM | 35.2 µM | 79.3 µM | – | 30.5 µM | > 100 µM | 68.2 µM | 37.5 µM | 48.9 µM | > 100 µM | –
CC(=O)NC1C(OCc2ccccc2)OC(CO)C(O)C1OC(C)C(=O)NC(C(=O)NC(CCC(=O)Nc1ccc2c(c1)CN1C(=O)c3ccccc3C1=N2)C(N)=O)C(C)C (configuration not stated) | > 100 µM | > 100 µM | > 100 µM | > 100 µM | > 100 µM | > 100 µM | > 100 µM | > 100 µM | > 100 µM | > 100 µM | > 100 µM | > 100 µM | – | > 100 µM | > 100 µM | > 100 µM | > 100 µM | > 100 µM | > 100 µM | > 100 µM
CC1=NN(c2ccccc2Cl)C2(C1)SCC(=O)N2c1nc2ccccc2s1 (configuration not stated) | > 100 µM | > 100 µM | > 100 µM | > 100 µM | > 100 µM | > 100 µM | > 100 µM | > 100 µM | > 100 µM | > 100 µM | > 100 µM | > 100 µM | > 100 µM | > 100 µM | > 100 µM | > 100 µM | – | > 100 µM | > 100 µM | > 100 µM
C[C@H]1ON2CCC[C@@H]2[C@@H]1C(=O)N1C2CC3CCC2(CS1(=O)=O)C3(C)C (some centres not stated) | > 100 µM | > 100 µM | > 100 µM | > 100 µM | > 100 µM | > 100 µM | > 100 µM | > 100 µM | > 100 µM | > 100 µM | > 100 µM | > 100 µM | > 100 µM | > 100 µM | > 100 µM | > 100 µM | – | > 100 µM | > 100 µM | > 100 µM
Cc1cc2c(cc1-c1cc3c(cc1C)C(C(C)C)=C(O)C(=O)/C3=C\Nc1cccc3c(N)cccc13)/C(=C/Nc1cccc3c(N)cccc13)C(=O)C(O)=C2C(C)C | > 100 µM | > 100 µM | > 100 µM | > 100 µM | > 100 µM | > 100 µM | > 100 µM | > 100 µM | > 100 µM | > 100 µM | > 100 µM | > 100 µM | > 100 µM | > 100 µM | > 100 µM | > 100 µM | > 100 µM | > 100 µM | > 100 µM | –
CCOC(=O)C(NC(=O)Nc1ccccc1F)(OC)C(F)(F)F (configuration not stated) | > 100 µM | > 100 µM | > 100 µM | – | > 100 µM | > 100 µM | > 100 µM | – | > 100 µM | – | > 100 µM | > 100 µM | – | > 100 µM | > 100 µM | > 100 µM | > 100 µM | > 100 µM | > 100 µM | > 100 µM
C/C(O)=C/c1nc2sc(C)c(C)c2c(=O)s1 | > 100 µM | > 100 µM | > 100 µM | > 100 µM | > 100 µM | 69.5 µM | > 100 µM | – | > 100 µM | > 100 µM | > 100 µM | 74 µM | > 100 µM | > 100 µM | > 100 µM | > 100 µM | – | > 100 µM | > 100 µM | > 100 µM
OCC1OC(NC(=S)NCSCCC(F)(F)C(F)(F)C(F)(F)C(F)(F)C(F)(F)C(F)(F)F)C(O)C(O)C1O (configuration not stated) | > 100 µM | > 100 µM | > 100 µM | > 100 µM | > 100 µM | > 100 µM | – | > 100 µM | > 100 µM | > 100 µM | > 100 µM | > 100 µM | – | > 100 µM | > 100 µM | > 100 µM | > 100 µM | > 100 µM | > 100 µM | 47.2 µM
COC1(CCO)CC=CCC1(CCO)OC (configuration not stated) | > 100 µM | > 100 µM | > 100 µM | > 100 µM | > 100 µM | > 100 µM | > 100 µM | > 100 µM | > 100 µM | > 100 µM | > 100 µM | > 100 µM | > 100 µM | > 100 µM | > 100 µM | – | > 100 µM | > 100 µM | > 100 µM | –
COc1cc(-c2c(C(C)=O)c(-c3ccccc3)n(C3OC(COC(C)=O)C(OC(C)=O)C(OC(C)=O)C3OC(C)=O)c(=S)c2C#N)ccc1O (configuration not stated) | > 100 µM | > 100 µM | > 100 µM | > 100 µM | > 100 µM | > 100 µM | > 100 µM | > 100 µM | > 100 µM | > 100 µM | > 100 µM | > 100 µM | – | > 100 µM | > 100 µM | > 100 µM | > 100 µM | > 100 µM | – | –
COc1cc(/C=C2\N=C(c3ccccc3)N(/N=C/c3cc4cc(C)ccc4nc3Cl)C2=O)ccc1O | > 100 µM | > 100 µM | > 100 µM | > 100 µM | > 100 µM | 50.1 µM | > 100 µM | > 100 µM | > 100 µM | > 100 µM | > 100 µM | > 100 µM | – | > 100 µM | 32 µM | – | 47.8 µM | > 100 µM | > 100 µM | > 100 µM
